Values joined by “and” are separate entries in the source; they are usually repeats but may differ in a detail not shown here. Equal entries are not always repeated. Where no end group is shown, it is not given here.
How the values were obtained:
mouse red blood cells = assay: Hemolysis assay; assay type: cell-based; conditions: 1 h, 37°C, DPBS, relative to Triton-X100 lysis control, triplicates
Procedure: Mouse blood was obtained from the ETH Phenomics Center. The erythrocytes were isolated by centrifugation at 500 × g for 10 min and removal of the blood plasma. The cells were washed three times by gently resuspending them in an equal volume of DPBS followed by centrifugation. After the last resuspension, the cells were diluted 1:50 in DPBS. For the hemolysis assay, a log2-serial dilution of each peptide was prepared as described for the MIC but using DPBS and 96-well plates (U-bottom, PP, 650201, Greiner) with a final volume of 100 μl. As lysis control, 2.5% Triton-X100 in DPBS was used in well 10, well 11 served as non-treated control (no peptide added), and well 12 as blank. To each well of the dilution plate, 100 μl of the red blood cells suspension was added. The plate was incubated for 1 h at 37°C. After incubation, the plate was centrifuged at 500 × g for 10 min and 100 μl of the supernatant was transferred to a clean 96-well plate (F-bottom, PS, 655101, Greiner). The absorbance was measured at 540 nm using an Infinite M1000 PRO plate reader (Tecan) and corrected by the measurements from the untreated wells. The lysis of each peptide concentration was expressed relative to the lysis control (set as 100% lysis). The hemolysis assay was performed in biological triplicates.

[1] = test system: HEK 293 cells transfected with a luciferase construct; assay: Whole cell translation inhibition assay; assay type: cell-based, human; conditions: HEK 293 whole-cell assay; 24 h incubation; luminescence; n = 1
Procedure: HEK293 cells were cultivated in DMEM medium supplemented with 10% fetal bovine serum and transfected with vector pRM-hFluc carrying a Fluc gene under constitutive CMV promotor control using Xfect™ Transfection Reagent (Takara, Japan) according to the manufacturer’s protocol. Transfected cells were seeded into a 24-well plate 6 h post-transfection and pre-incubated overnight prior to addition of peptides in the next morning. Following 24 h of incubation in the presence of the peptides, cells were lysed using Lysis Buffer (Promega) and the luminescence was measured in a white microtiter plate using the FLx800 luminometer (Bio-Tek Instruments, USA).

HEK 293 ribosomes = assay: In vitro translation inhibition assay, HEK 293 S30 extract; assay type: biochemical, human; conditions: firefly luciferase mRNA, 800 to 0.08 μM, 1 h, 37°C, n = 9, p<10^−5, Wilcoxon
Procedure: To measure inhibition of the HEK 293 ribosome, an S30 extract was prepared from HEK 293-F cells. Suspension cultures of HEK 293-F cells (Gibco, Thermo Fisher) were maintained in 293 SFM II medium (Thermo Fisher) supplemented with 4 mM of L-glutamine according to the manufacturer’s instructions. Cells in the logarithmic phase were harvested by centrifugation for 18 min at 200 × g at 4°C. The cell pellet was washed twice with ice-cold PBS and pelleted again for 5 min at 200 × g at 4°C. Subsequently, cells were washed twice with ice-cold washing buffer (35 mM HEPES-KOH buffer pH 7.4, 146 mM NaCl, 11 mM D-(+)-glucose) and centrifuged for 5 min at 200 × g and 4°C. Cells were then resuspended in twice the volume of hypotonic buffer (20 mM HEPES-KOH buffer pH7.4, 10 mM KCl, 1.5 mM magnesium acetate, 1 mM DTT) and incubated for 10 min on ice. Cells were disrupted using a glass Dounce tissue homogenizer (Kimble, DWK Life Sciences, Mainz, Germany). After disruption, 0.1 volume of 10fold buffer (200 mM HEPES-KOH buffer pH 7.4, 1.2 M potassium acetate, 40 mM magnesium acetate, 50 mM DTT) of the total amount of hypotonic buffer was added. Cell debris was pelleted by centrifuging the lysate for 10 min at 700 × g at 4°C. The supernatant was then centrifuged for 15 min at 30,000 × g at 4°C.
(BIO-TEK FLx80, Witec AG, Littau, CH). […] Y=Bottom + (Top-Bottom)/(1+10^((X-LogIC50)))”.

## RRIRIRPPRLPRPRPRPYFMPRP [Bac7PS]
Mouse red blood cells; 1xMIC (MIC measured for E. coli ATCC 25922)
  Hemolysis of mouse red blood cells: < 4% and 3.1%
Mouse red blood cells; 4xMIC (MIC measured for E. coli ATCC 25922)
  Hemolysis of mouse red blood cells: < 7% and 3.8%
[1]
  concentration above which increased translational inhibition relative to Bac7_1-23 appeared: above 200 μM
HEK 293 ribosomes
  mean increase in ribosomal binding (translation inhibition IC50), HEK 293 ribosomes, compared to Bac7_1-23: 38%

From article PMC9112550, “Optimization of the antimicrobial peptide Bac7 by deep mutational scanning” (BMC Biology, 2022)
